Laboratory results: PubChem BioAssay AID248 (DTP/NCI, 2004)
Several values for one entry are separate records, joined by “and”; a condition that tells them apart may be missing. Equal values may be shown once. Toxic doses and inconclusive results are not listed. Rule as the data show it: active = T/C of 150% or more; inactive = T/C below 125%.

System: L1210 leukemia ip in BDF1 mice, survival T/C
Experiment: NCI In Vivo Anticancer Drug Screen. Data for tumor model L1210 Leukemia (intraperitoneal) in B6D2F1 (BDF1) mice
Conditions: endpoint: mean survival time, higher = longer survival
How it was run: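 Read-out is survival time, reported as the treated-group measurement over the vehicle-control measurement.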

[1] = dose: 100.0 mg/kg/injection, schedule: Q01DX009 (ip), vehicle: Klucel (hydroxypropylcellulose) (HPC)
[2] = dose: 100.0 mg/kg/injection, schedule: Q04DX003 (ip), vehicle: Klucel (hydroxypropylcellulose) (HPC)
[3] = dose: 200.0 mg/kg/injection, schedule: Q01DX009 (ip), vehicle: Klucel (hydroxypropylcellulose) (HPC)
[4] = dose: 200.0 mg/kg/injection, schedule: Q04DX003 (ip), vehicle: Klucel (hydroxypropylcellulose) (HPC)
[5] = dose: 400.0 mg/kg/injection, schedule: Q01DX009 (ip), vehicle: Klucel (hydroxypropylcellulose) (HPC)
[6] = dose: 400.0 mg/kg/injection, schedule: Q04DX003 (ip), vehicle: Klucel (hydroxypropylcellulose) (HPC)
[7] = dose: 100.0 mg/kg/injection, schedule: Q04DX003 (ip), vehicle: saline
[8] = dose: 200.0 mg/kg/injection, schedule: Q04DX003 (ip), vehicle: saline
[9] = dose: 100.0 mg/kg/injection, schedule: Q04DX002 (ip), vehicle: saline with Tween-80
[10] = dose: 200.0 mg/kg/injection, schedule: Q04DX002 (ip), vehicle: saline with Tween-80
[11] = dose: 400.0 mg/kg/injection, schedule: Q04DX002 (ip), vehicle: saline with Tween-80
[12] = dose: 50.0 mg/kg/injection, schedule: Q01DX009 (ip), vehicle: saline
[13] = dose: 100.0 mg/kg/injection, schedule: Q01DX001 (ip), vehicle: saline
[14] = dose: 100.0 mg/kg/injection, schedule: Q01DX009 (ip), vehicle: saline
[15] = dose: 200.0 mg/kg/injection, schedule: Q01DX001 (ip), vehicle: saline
[16] = dose: 400.0 mg/kg/injection, schedule: Q01DX001 (ip), vehicle: saline
[17] = dose: 100.0 mg/kg/injection, schedule: Q01DX001 (ip), vehicle: carboxymethylcellulose (CMC)
[18] = dose: 100.0 mg/kg/injection, schedule: Q01DX001 (ip), vehicle: saline with Tween-80
[19] = dose: 25.0 mg/kg/injection, schedule: Q01DX009 (ip), vehicle: Klucel (hydroxypropylcellulose) (HPC)
[20] = dose: 50.0 mg/kg/injection, schedule: Q01DX009 (ip), vehicle: Klucel (hydroxypropylcellulose) (HPC)
[21] = dose: 100.0 mg/kg/injection, schedule: Q01DX009 (ip), vehicle: saline with Tween-80
[22] = dose: 200.0 mg/kg/injection, schedule: Q01DX009 (ip), vehicle: saline with Tween-80
[23] = dose: 50.0 mg/kg/injection, schedule: Q01DX009 (ip), vehicle: saline with Tween-80
[24] = dose: 200.0 mg/kg/injection, schedule: Q01DX001 (ip), vehicle: saline with Tween-80

Measured: T/C

CCN(CC)c1cc(Cl)c(C=O)cc1Br
inactive: [1] 98 % of control | [2] 105 % of control | [3] 100 % of control | [4] 98 % of control | [5] 100 % of control | [6] 104 % of control

O=C(O)CCC(NC(=O)C1CCCCC1C(=O)O)C(=O)O (stereo unspecified)
inactive: [7] 96 % of control | [8] 86 % of control | dose: 400.0 mg/kg/injection, schedule: Q04DX003 (ip), vehicle: saline 87 % of control

NNc1nc2c(N)ncnc2n1C1OC(CO)C(O)C1O (stereo unspecified)
inactive: dose: 100.0 mg/kg/injection, schedule: Q01DX005 (ip), vehicle: saline 104 % of control | dose: 200.0 mg/kg/injection, schedule: Q01DX005 (ip), vehicle: saline 107 % of control

CCCCc1cn(S(=O)(=O)c2ccc(C)cc2)nn1
inactive: [9] 106 % of control | [10] 100 % of control | [11] 106 % of control

CC(=O)SC1CC(=O)OC1=O (stereo unspecified)
inactive: [12] 96 % of control | [13] 96 % of control | [14] 102 % of control | [15] 104 % of control | [16] 98 % of control

CC1(C)COc2cc([N+](=O)[O-])cc(N)c2N1
inactive: dose: 75.0 mg/kg/injection, schedule: Q01DX001 (ip), vehicle: saline 107 % of control | dose: 75.0 mg/kg/injection, schedule: Q04DX003 (ip), vehicle: acetone 110 % of control | dose: 150.0 mg/kg/injection, schedule: Q01DX001 (ip), vehicle: saline 100 % of control | dose: 150.0 mg/kg/injection, schedule: Q04DX003 (ip), vehicle: acetone 95 % of control | dose: 300.0 mg/kg/injection, schedule: Q01DX001 (ip), vehicle: saline 96 % of control | dose: 300.0 mg/kg/injection, schedule: Q04DX003 (ip), vehicle: acetone 101 % of control

NC(=O)c1ncn(C2OC(CO)C(O)C2O)c1C(N)=O (stereo unspecified)
inactive: [17] 104 % of control | dose: 200.0 mg/kg/injection, schedule: Q01DX001 (ip), vehicle: carboxymethylcellulose (CMC) 123 % of control

O=C(N=C1C=CC(=NC(=O)c2ccccc2)C=C1)c1ccccc1
inactive: dose: 75.0 mg/kg/injection, schedule: Q04DX003 (ip), vehicle: Klucel (hydroxypropylcellulose) (HPC) 87 % of control | dose: 150.0 mg/kg/injection, schedule: Q04DX003 (ip), vehicle: Klucel (hydroxypropylcellulose) (HPC) 92 % of control | dose: 300.0 mg/kg/injection, schedule: Q04DX003 (ip), vehicle: Klucel (hydroxypropylcellulose) (HPC) 87 % of control

N#C/C(=C/c1cc(Cl)ccc1O)C(N)=O
inactive: [1] 102 % of control | [3] 95 % of control | [5] 100 % of control

NC(=O)c1cc(Cl)cc(Cl)c1N1CC[N+](CCCl)=N1
inactive: [18] 103 % of control

Cc1noc2ncnc(N)c12
inactive: [19] 102 % of control | [20] 102 % of control | [1] 95 % of control

CC(C)N(CCCCO)C(C)C
inactive: [17] 91 % of control

O=[N+]([O-])c1ccc(OCc2ccccc2)c(Cl)c1
inactive: dose: 25.0 mg/kg/injection, schedule: Q04DX003 (ip), vehicle: saline with Tween-80 102 % of control | dose: 50.0 mg/kg/injection, schedule: Q04DX003 (ip), vehicle: saline with Tween-80 96 % of control | dose: 100.0 mg/kg/injection, schedule: Q04DX003 (ip), vehicle: saline with Tween-80 98 % of control and 105 % of control

CN(C(=O)C(=O)N(C)S(=O)(=O)c1ccccc1)S(=O)(=O)c1ccccc1
inactive: dose: 100.0 mg/kg/injection, schedule: Q01DX001 (ip), vehicle: Klucel (hydroxypropylcellulose) (HPC) 101 % of control | dose: 200.0 mg/kg/injection, schedule: Q01DX001 (ip), vehicle: Klucel (hydroxypropylcellulose) (HPC) 97 % of control | dose: 400.0 mg/kg/injection, schedule: Q01DX001 (ip), vehicle: Klucel (hydroxypropylcellulose) (HPC) 90 % of control

C[P+]1(C)CC2OC2C1 (stereo unspecified)
inactive: dose: 12.5 mg/kg/injection, schedule: Q01DX009 (ip), vehicle: saline 91 % of control | dose: 25.0 mg/kg/injection, schedule: Q01DX009 (ip), vehicle: saline 102 % of control | [12] 94 % of control | [14] 91 % of control

CN(C(=O)COc1ccccc1)c1ccc([N+](=O)[O-])cc1
inactive: [21] 95 % of control | [22] 93 % of control | dose: 400.0 mg/kg/injection, schedule: Q01DX009 (ip), vehicle: saline with Tween-80 95 % of control

CC(=O)c1ccc(OC(=O)Nc2ccccc2F)cc1
inactive: dose: 25.0 mg/kg/injection, schedule: Q01DX009 (ip), vehicle: saline with Tween-80 112 % of control | [23] 111 % of control | [21] 96 % of control and 110 % of control

Cc1ccc2nc(Nc3ccc(Cl)cc3)cc(C(O)C3CCCCN3)c2c1 (stereo unspecified)
inactive: [2] 96 % of control | [4] 92 % of control | [6] 97 % of control

O=C1CC(Nc2ccc(F)cc2)C(=O)N1c1ccc(F)cc1 (stereo unspecified)
inactive: dose: 75.0 mg/kg/injection, schedule: Q04DX003 (ip), vehicle: other 90 % of control | dose: 150.0 mg/kg/injection, schedule: Q04DX003 (ip), vehicle: other 92 % of control | dose: 300.0 mg/kg/injection, schedule: Q04DX003 (ip), vehicle: other 90 % of control

CCOC(=O)c1c[nH]c2cc(OC)ccc2c1=O
inactive: [21] 92 % of control | [22] 93 % of control

CSCCC(C#N)(CCN(C)C)c1ccccc1 (stereo unspecified)
inactive: dose: 25.0 mg/kg/injection, schedule: Q01DX009 (ip), vehicle: other 102 % of control | dose: 50.0 mg/kg/injection, schedule: Q01DX009 (ip), vehicle: other 98 % of control | dose: 100.0 mg/kg/injection, schedule: Q01DX009 (ip), vehicle: other 91 % of control | [21] 97 % of control | [2] 96 % of control | [4] 98 % of control

CNCCN(C)CCNC
inactive: [12] 104 % of control | [14] 101 % of control | [7] 103 % of control | [8] 96 % of control

CC(=O)N(c1ccc(NC(=O)c2ccc(N3C(=O)c4ccccc4C3=O)cc2[N+](=O)[O-])cc1)c1cc[n+](C)cc1
inactive: [18] 93 % of control and 90 % of control | [9] 101 % of control and 115 % of control | [24] 93 % of control and 108 % of control | [10] 101 % of control and 113 % of control | dose: 400.0 mg/kg/injection, schedule: Q01DX001 (ip), vehicle: saline with Tween-80 107 % of control and 90 % of control | [11] 96 % of control and 105 % of control

CC(=O)OCC[N+](C)(C)CCCCCCCCCC[N+](C)(C)CCOC(C)=O
inactive: dose: 3.0 mg/kg/injection, schedule: Q01DX009 (ip), vehicle: saline 100 % of control | dose: 6.25 mg/kg/injection, schedule: Q01DX009 (ip), vehicle: saline 89 % of control | dose: 12.5 mg/kg/injection, schedule: Q01DX009 (ip), vehicle: Klucel (hydroxypropylcellulose) (HPC) 97 % of control

COc1ccc(OC)c(NC(=O)N(Cc2ccccc2)Cc2ccccc2)c1
inactive: [2] 93 % of control | [4] 87 % of control | [6] 88 % of control

CCCCCCCCCCCCCCCC=C(C)C
inactive: [18] 101 % of control | [24] 103 % of control

CN(C)CCN(Cc1ccccc1)c1ccccc1
inactive: [19] 98 % of control | dose: 25.0 mg/kg/injection, schedule: Q04DX003 (ip), vehicle: Klucel (hydroxypropylcellulose) (HPC) 95 % of control | [20] 102 % of control | dose: 50.0 mg/kg/injection, schedule: Q04DX003 (ip), vehicle: Klucel (hydroxypropylcellulose) (HPC) 103 % of control | [1] 106 % of control | [2] 103 % of control

Nc1ccc(NS(=O)(=O)CCl)cc1
inactive: [9] 111 % of control | [10] 116 % of control | [11] 96 % of control

O=[N+]([O-])c1ccc(Sc2ccc([N+](=O)[O-])cc2)cc1
inactive: [23] 92 % of control | [21] 91 % of control | [22] 89 % of control

CCOP(=O)(OCC)c1ccc([N+](=O)[O-])cc1
inactive: [13] 87 % of control | [15] 89 % of control

[CH3][Sn]([c]1ccccc1)([c]1ccccc1)[c]1ccccc1
inactive: [9] 91 % of control | [10] 95 % of control | [11] 103 % of control

CCCCCCCCCCCCSCCC(=O)O
inactive: [13] 98 % of control | [15] 95 % of control | [16] 93 % of control
